# In PubChem BioAssay AID1963850 (Molecular Pharmacology Branch, DTP, NCI, 2024):
# System: 192522-019-R-J2-PDC complex tumor spheroid viability
# Test: Anticancer human tumor 192522-019-R-J2-PDC patient-derived colon adenocarcinoma cell line growth inhibition [POLQ]
# Settings: for IC50: curve of first compound; for viability, T/C: stronger effect = lower value
# In short: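 Three-cell-type spheroids modelling solid tumor plus stroma served as the readout system; POL inhibitors were tested individually and in combination, concentration ranges set by clinical Cmax where known.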
# [1] = second compound 0.0316 µM, first compound 0.0316 µM
# [2] = second compound 0.0316 µM, first compound 0.1 µM
# [3] = second compound 0.0316 µM, first compound 0.316 µM
# [4] = second compound 0.0316 µM, first compound 1 µM
# [5] = second compound 0.0316 µM, first compound 3.16 µM
# [6] = second compound 0.0316 µM, first compound 10 µM
# [7] = second compound 0.1 µM, first compound 0.0316 µM
# [8] = second compound 0.1 µM, first compound 0.1 µM
# [9] = second compound 0.1 µM, first compound 0.316 µM
# [10] = second compound 0.1 µM, first compound 1 µM
# [11] = second compound 0.1 µM, first compound 3.16 µM
# [12] = second compound 0.1 µM, first compound 10 µM
# [13] = second compound 0.316 µM, first compound 0.0316 µM
# [14] = second compound 0.316 µM, first compound 0.1 µM
# [15] = second compound 0.316 µM, first compound 0.316 µM
# [16] = second compound 0.316 µM, first compound 1 µM
# [17] = second compound 0.316 µM, first compound 3.16 µM
# [18] = second compound 0.316 µM, first compound 10 µM
# [19] = second compound 1 µM, first compound 0.0316 µM
# [20] = second compound 1 µM, first compound 0.1 µM
# [21] = second compound 1 µM, first compound 0.316 µM
# [22] = second compound 1 µM, first compound 1 µM
# [23] = second compound 1 µM, first compound 3.16 µM
# [24] = second compound 1 µM, first compound 10 µM
# [25] = second compound 3.16 µM, first compound 0.0316 µM
# [26] = second compound 3.16 µM, first compound 0.1 µM
# [27] = second compound 3.16 µM, first compound 0.316 µM
# [28] = second compound 3.16 µM, first compound 1 µM
# [29] = second compound 3.16 µM, first compound 3.16 µM
# [30] = second compound 3.16 µM, first compound 10 µM
# [31] = second compound 10 µM, first compound 0.0316 µM
# [32] = second compound 10 µM, first compound 0.1 µM
# [33] = second compound 10 µM, first compound 0.316 µM
# [34] = second compound 10 µM, first compound 1 µM
# [35] = second compound 10 µM, first compound 3.16 µM
# [36] = second compound 10 µM, first compound 10 µM
# 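Also: spheroids exposed to drugs for seven days before reading.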
# 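For viability, T/C in this document: 100% = DMSO vehicle control viability in luminescence.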
compound,measurement,setting,value
COc1cccc2c1C(=O)c1c(O)c3c(c(O)c1C2=O)CC(O)(C(=O)CO)CC3OC1CC(N)C(O)C(C)O1 (stereo not drawn) + Nc1ccc(C#CCN(C(=O)Cc2ncc(C(F)(F)F)cc2C(F)(F)F)c2ccc(F)cc2)nn1,IC50,second compound 0.0316 µM,> 10 µM
same,IC50,second compound 0.1 µM,> 10 µM
same,IC50,second compound 0.316 µM,> 10 µM
same,IC50,second compound 1 µM,> 10 µM
same,IC50,second compound 3.16 µM,> 10 µM
same,IC50,second compound 10 µM,> 10 µM
same,"viability, T/C",[1],100%
same,"viability, T/C",[2],85%
same,"viability, T/C",[3],79.4%
same,"viability, T/C",[4],75.7%
same,"viability, T/C",[5],74%
same,"viability, T/C",[6],58.9%
same,"viability, T/C",[7],108%
same,"viability, T/C",[8],80.4%
same,"viability, T/C",[9],81.6%
same,"viability, T/C",[10],79.9%
same,"viability, T/C",[11],68.4%
same,"viability, T/C",[12],62.4%
same,"viability, T/C",[13],100%
same,"viability, T/C",[14],89%
same,"viability, T/C",[15],80.1%
same,"viability, T/C",[16],81.5%
same,"viability, T/C",[17],73.5%
same,"viability, T/C",[18],62.7%
same,"viability, T/C",[19],88.6%
same,"viability, T/C",[20],81.9%
same,"viability, T/C",[21],81.2%
same,"viability, T/C",[22],71.2%
same,"viability, T/C",[23],67.8%
same,"viability, T/C",[24],58%
same,"viability, T/C",[25],96.7%
same,"viability, T/C",[26],85%
same,"viability, T/C",[27],87.9%
same,"viability, T/C",[28],75.4%
same,"viability, T/C",[29],69.2%
same,"viability, T/C",[30],58.1%
same,"viability, T/C",[31],92.4%
same,"viability, T/C",[32],81.2%
same,"viability, T/C",[33],94.7%
same,"viability, T/C",[34],71.5%
same,"viability, T/C",[35],60.4%
same,"viability, T/C",[36],49.1%
CC(C)n1c(=O)n(C)c2cnc3cc(F)c(-c4ccc(OCCCN5CCCCC5)nc4)cc3c21 + Cc1cccc(N(C)C(=O)C2C(O)CCN2c2nc(C)cc(C(F)(F)F)c2C#N)c1,IC50,second compound 0.0316 µM,> 10 µM
same,IC50,second compound 0.1 µM,> 10 µM
same,IC50,second compound 0.316 µM,> 10 µM
same,IC50,second compound 1 µM,> 10 µM
same,IC50,second compound 3.16 µM,> 10 µM
same,IC50,second compound 10 µM,> 10 µM
same,"viability, T/C",[1],113%
same,"viability, T/C",[2],87%
same,"viability, T/C",[3],102%
same,"viability, T/C",[4],103%
same,"viability, T/C",[5],116%
same,"viability, T/C",[6],99.3%
same,"viability, T/C",[7],104%
same,"viability, T/C",[8],99%
same,"viability, T/C",[9],107%
same,"viability, T/C",[10],107%
same,"viability, T/C",[11],99.8%
same,"viability, T/C",[12],99.5%
same,"viability, T/C",[13],94%
same,"viability, T/C",[14],98.4%
same,"viability, T/C",[15],108%
same,"viability, T/C",[16],105%
same,"viability, T/C",[17],127%
same,"viability, T/C",[18],104%
same,"viability, T/C",[19],98.9%
same,"viability, T/C",[20],110%
same,"viability, T/C",[21],106%
same,"viability, T/C",[22],123%
same,"viability, T/C",[23],116%
same,"viability, T/C",[24],105%
same,"viability, T/C",[25],92%
same,"viability, T/C",[26],103%
same,"viability, T/C",[27],114%
same,"viability, T/C",[28],118%
same,"viability, T/C",[29],134%
same,"viability, T/C",[30],105%
same,"viability, T/C",[31],105%
same,"viability, T/C",[32],94.1%
same,"viability, T/C",[33],117%
same,"viability, T/C",[34],114%
same,"viability, T/C",[35],120%
same,"viability, T/C",[36],110%
CCc1c2c(nc3ccc(O)cc13)-c1cc3c(c(=O)n1C2)COC(=O)[C@]3(O)CC + Cc1cccc(N(C)C(=O)C2C(O)CCN2c2nc(C)cc(C(F)(F)F)c2C#N)c1,IC50,second compound 0.0316 µM,0.131 µM
same,IC50,second compound 0.1 µM,0.136 µM
same,IC50,second compound 0.316 µM,0.158 µM
same,IC50,second compound 1 µM,0.229 µM
same,IC50,second compound 3.16 µM,0.234 µM
same,IC50,second compound 10 µM,0.112 µM
same,"viability, T/C","second compound 0.0316 µM, first compound 0.00316 µM",95.4%
same,"viability, T/C","second compound 0.0316 µM, first compound 0.01 µM",63.6%
same,"viability, T/C",[1],72.2%
same,"viability, T/C",[2],53.6%
same,"viability, T/C",[3],40.3%
same,"viability, T/C",[4],31.1%
same,"viability, T/C","second compound 0.1 µM, first compound 0.00316 µM",91.5%
same,"viability, T/C","second compound 0.1 µM, first compound 0.01 µM",66.2%
same,"viability, T/C",[7],75.8%
same,"viability, T/C",[8],52.3%
same,"viability, T/C",[9],36.7%
same,"viability, T/C",[10],33.5%
same,"viability, T/C","second compound 0.316 µM, first compound 0.00316 µM",104%
same,"viability, T/C","second compound 0.316 µM, first compound 0.01 µM",72.8%
same,"viability, T/C",[13],70.5%
same,"viability, T/C",[14],60.7%
same,"viability, T/C",[15],38.8%
same,"viability, T/C",[16],33.9%
same,"viability, T/C","second compound 1 µM, first compound 0.00316 µM",95.1%
same,"viability, T/C","second compound 1 µM, first compound 0.01 µM",78.1%
same,"viability, T/C",[19],71.9%
same,"viability, T/C",[20],61%
same,"viability, T/C",[21],44.5%
same,"viability, T/C",[22],35%
same,"viability, T/C","second compound 3.16 µM, first compound 0.00316 µM",101%
same,"viability, T/C","second compound 3.16 µM, first compound 0.01 µM",82.6%
same,"viability, T/C",[25],79.1%
same,"viability, T/C",[26],57.3%
same,"viability, T/C",[27],45.8%
same,"viability, T/C",[28],36.4%
same,"viability, T/C","second compound 10 µM, first compound 0.00316 µM",97.6%
same,"viability, T/C","second compound 10 µM, first compound 0.01 µM",69.4%
same,"viability, T/C",[31],68.8%
same,"viability, T/C",[32],49.4%
same,"viability, T/C",[33],42.6%
same,"viability, T/C",[34],36.5%
CCc1cc2c(N3CCc4c(cc(Cn5ccnc5)cc4-c4cn(C)nc4C(F)(F)F)C3=O)ccnc2c(OC)n1 + Nc1ccc(C#CCN(C(=O)Cc2ncc(C(F)(F)F)cc2C(F)(F)F)c2ccc(F)cc2)nn1,IC50,second compound 0.0316 µM,> 10 µM
same,IC50,second compound 0.1 µM,> 10 µM
same,IC50,second compound 0.316 µM,> 10 µM
same,IC50,second compound 1 µM,> 10 µM
same,IC50,second compound 3.16 µM,> 10 µM
same,IC50,second compound 10 µM,> 10 µM
same,"viability, T/C",[1],109%
same,"viability, T/C",[2],94.7%
same,"viability, T/C",[3],91.9%
same,"viability, T/C",[4],71.8%
same,"viability, T/C",[5],75.5%
same,"viability, T/C",[6],72.2%
same,"viability, T/C",[7],96.1%
same,"viability, T/C",[8],94.9%
same,"viability, T/C",[9],94%
same,"viability, T/C",[10],80.9%
same,"viability, T/C",[11],74.6%
same,"viability, T/C",[12],70.6%
same,"viability, T/C",[13],103%
same,"viability, T/C",[14],99%
same,"viability, T/C",[15],88%
same,"viability, T/C",[16],80.6%
same,"viability, T/C",[17],76.2%
same,"viability, T/C",[18],77.1%
same,"viability, T/C",[19],99.7%
same,"viability, T/C",[20],99.4%
same,"viability, T/C",[21],94.4%
same,"viability, T/C",[22],88.3%
same,"viability, T/C",[23],87.6%
same,"viability, T/C",[24],74.5%
same,"viability, T/C",[25],108%
same,"viability, T/C",[26],91.6%
same,"viability, T/C",[27],97.5%
same,"viability, T/C",[28],81%
same,"viability, T/C",[29],90.6%
same,"viability, T/C",[30],75.8%
same,"viability, T/C",[31],106%
same,"viability, T/C",[32],97.9%
same,"viability, T/C",[33],97.8%
same,"viability, T/C",[34],86%
same,"viability, T/C",[35],92.7%
same,"viability, T/C",[36],79.8%
